In US10076519B2 (CYTOKINETICS, INC., priority 2010, dated 2018):

These molecules were tested on rabbit skeletal myofibrils (fast skeletal myofibrils) (assay: Activation of fast skeletal myofibrils (PUMA assay, PK/LDH-coupled ATPase at pCa25)). Details: AC1.4 determined according to the procedure of Example 39; reported as class symbols.
Assay type: biochemical
How it was run: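 Detergent-washed rabbit psoas myofibrils (~90% fast fibres, calcium-regulated) assayed at calcium giving 25% of maximal ATPase rate (pCa25). ADP turnover coupled via pyruvate kinase/lactate dehydrogenase to NADH oxidation, read at 340 nm. Buffer 12 mM PIPES, 2 mM MgCl2, 1 mM DTT, pH 6.8; AC1.4 values derived.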

Structure (SMILES)	Mean AC1.4
NC(=O)c1cccc(-c2ccc(NCCc3ccccn3)nn2)c1 [3-{6-[(2-(2-pyridyl)ethyl)amino]pyridazin-3-yl}benzamide]	D (D=>20 uM)
NC(=O)c1cccc(-c2ccc(NCCc3cccnc3)nn2)c1 [3-{6-[(2-(3-pyridyl)ethyl)amino]pyridazin-3-yl}benzamide]	D (D=>20 uM)
NC(=O)c1cccc(-c2ccc(NCCc3ccncc3)nn2)c1 [3-{6-[(2-(4-pyridyl)ethyl)amino]pyridazin-3-yl}benzamide]	D (D=>20 uM)
CC(C)(CNc1ccc(-c2cccc(C(N)=O)c2)nn1)c1ncccn1 [3-{6-[(2-methyl-2-pyrimidin-2-ylpropyl)amino]pyridazin-3-yl}benzamide]	D (D=>20 uM)
NC(=O)c1cccc(-c2ccc(NCCc3ccccc3)nn2)c1 [3-{6-[(2-phenylethyl)amino]pyridazin-3-yl}benzamide]	D (D=>20 uM)
CC(CNc1ccc(-c2cccc(C(N)=O)c2)nn1)c1ccccc1 (centres unmarked) [3-{6-[(2-phenylpropyl)amino]pyridazin-3-yl}benzamide]	B (B=1-10 uM)
CC(CNc1ccc(-c2cccc(C(N)=O)c2)nn1)N1CCCCC1 (centres unmarked) [3-{6-[(2-piperidylpropyl)amino]pyridazin-3-yl}benzamide]	D (D=>20 uM)
NC(=O)c1cccc(-c2ccc(NCCc3cnccn3)nn2)c1 [3-{6-[(2-pyrazin-2-ylethyl)amino]pyridazin-3-yl}benzamide]	D (D=>20 uM)
CC(C)(C)CCNc1ccc(-c2cccc(C(N)=O)c2)nn1 [3-{6-[(3,3-dimethylbutyl)amino]pyridazin-3-yl}benzamide]	D (D=>20 uM)
NC(=O)c1cccc(-c2ccc(NCC3CCc4ccccc43)nn2)c1 (centres unmarked) [3-{6-[(indanylmethyl)amino]pyridazin-3-yl}benzamide]	B (B=1-10 uM)
CC(C)(CNc1ccc(C2=CCN(S(C)(=O)=O)CC2)nn1)c1ccc(F)cc1 [4-(6-{[2-(4-fluorophenyl)-2-methylpropyl]amino}pyridazin-3-yl)-1-(methylsulfonyl)-1,2,5,6-tetrahydropyridine]	B (B=1-10 uM)
CC(C)(CNc1ccc(-c2ccc(C(N)=O)cc2)nn1)c1ccc(F)cc1 [4-(6-{[2-(4-fluorophenyl)-2-methylpropyl]amino}pyridazin-3-yl)benzamide]	B (B=1-10 uM)

Other lines, results leading:

Mean AC1.4	Structure (SMILES)
B (B=1-10 uM)	CC(C)(CNc1ccc(-c2ccc(C#N)cc2)nn1)c1ccc(F)cc1 [4-(6-{[2-(4-fluorophenyl)-2-methylpropyl]amino}pyridazin-3-yl)benzenecarbonitrile]
D (D=>20 uM)	CC(C)(CNc1ccc(-c2ccc(C(=O)c3ccccc3)cc2)nn1)c1ccc(F)cc1 [4-(6-{[2-(4-fluorophenyl)-2-methylpropyl]amino}pyridazin-3-yl)phenyl phenyl ketone]
D (D=>20 uM)	CC(C)(CNc1ccc(C(=O)N2CCNC(=O)C2)nn1)c1ccc(F)cc1 [4-[(6-{[2-(4-fluorophenyl)-2-methylpropyl]amino}pyridazin-3-yl)carbonyl]piperazin-2-one]
D (D=>20 uM)	CC(C)(CNc1ccc(C(=O)N2CCNC(C(N)=O)C2)nn1)c1ccc(F)cc1 (centres unmarked) [4-[(6-{[2-(4-fluorophenyl)-2-methylpropyl]amino}pyridazin-3-yl)carbonyl]piperazine-2-carboxamide]

Same assay, conditions: median AC1.4 class, procedure of Example 39

Structure (SMILES)	Mean AC1.4
O=c1[nH]nc(-c2cccc(-c3ccc(NCC4(c5ncccc5F)CCC4)nn3)c2)[nH]1 [3-{3-[6-({[(3-fluoro-2-pyridyl)cyclobutyl]methyl}ami-no)pyridazin-3-yl]phenyl}-1,2,4-triazolin-5-one]	B (B=1-10 uM)
O=c1[nH]nc(-c2ccc(F)c(-c3ccc(NCC4(c5ncccc5F)CCC4)nn3)c2)[nH]1 [3-{4-fluoro-3-[6-({[(3-fluoro(2-pyridyl))cyclobutyl]methyl}ami-no)pyridazin-3-yl]phenyl}-1,2,4-triazolin-5-one]	A (A=<1 uM)
O=c1[nH]nc(-c2ccc(-c3ccc(NCC4(c5ncccc5F)CCC4)nn3)s2)[nH]1 [3-{5-[6-({[(3-fluoro-2-pyridyl)cyclobutyl]methyl}ami-no)pyridazin-3-yl]-2-thienyl}-1,2,4-triazolin-5-one]	A (A=<1 uM)
NC(=O)c1cccc(-c2ccc(NC3(c4nccs4)CCC3)nn2)c1 [3-{6-[(1,3-thiazol-2-ylcyclobutyl)amino]pyridazin-3-yl}benzamide]	D (D=>20 uM)
CC(C)(Nc1ccc(-c2cccc(C(N)=O)c2)nn1)c1ccccn1 [3-{6-[(1-methyl-1-(2-pyridyl)ethyl)amino]pyridazin-3-yl}benzamide]	D (D=>20 uM)
CC(C)(Nc1ccc(-c2cccc(C(N)=O)c2)nn1)c1ccccc1 [3-{6-[(1-methyl-1-phenylethyl)amino]pyridazin-3-yl}benzamide]	B (B=1-10 uM)
CC(C)(Nc1ccc(-c2cccc(C#N)c2)nn1)c1ccccc1 [3-{6-[(1-methyl-1-phenylethyl)amino]pyridazin-3-yl}benzenecarbonitrile]	B (B=1-10 uM)
NC(=O)c1cccc(-c2ccc(NCC(F)(F)c3ccccn3)nn2)c1 [3-{6-[(2,2-difluoro-2-(2-pyridyl)ethyl)amino]pyridazin-3-yl}benzamide]	D (D=>20 uM)
NC(=O)c1cccc(-c2ccc(NC3(c4ccccn4)CCC3)nn2)c1 [3-{6-[(2-pyridylcyclobutyl)amino]pyridazin-3-yl}benzamide]	D (D=>20 uM)
CC(C)(C)Nc1ccc(-c2cccc(C(N)=O)c2)nn1 [3-{6-[(tert-butyl)amino]pyridazin-3-yl}benzamide]	C (C=10-20 uM)

Second part, the molecule after the results:

Mean AC1.4	Structure (SMILES)
B (B=1-10 uM)	O=C(c1cnc(-c2ccc(NCC3(c4ncccc4F)CCC3)nn2)s1)N1CCS(=O)(=O)CC1 [4-({2-[6-({[(3-fluoro-2-pyridyl)cyclobutyl]methyl}ami-no)pyridazin-3-yl]-1,3-thiazol-5-yl}carbonyl)-1,4-thiazaperhydroine-1,1-dione]
C (C=10-20 uM)	O=C1CN(C(=O)c2cnc(-c3ccc(NCC4(c5ncccc5F)CCC4)nn3)s2)CCN1 [4-({2-[6-({[(3-fluoro-2-pyridyl)cyclobutyl]methyl}ami-no)pyridazin-3-yl]-1,3-thiazol-5-yl}carbonyl)piperazin-2-one]
B (B=1-10 uM)	NC(=O)C1CN(C(=O)c2cnc(-c3ccc(NCC4(c5ncccc5F)CCC4)nn3)s2)CCN1 (centres unmarked) [4-({2-[6-({[(3-fluoro-2-pyridyl)cyclobutyl]methyl}ami-no)pyridazin-3-yl]-1,3-thiazol-5-yl}carbonyl)piperazine-2-carboxamide]
B (B=1-10 uM)	NC(=O)c1nc(-c2ccc(NCC3(c4ncccc4F)CCC3)nn2)cs1 [4-[6-({[(3-fluoro-2-pyridyl)cyclobutyl]methyl}ami-no)pyridazin-3-yl]-1,3-thiazole-2-carboxamide]
D (D=>20 uM)	NC(=O)c1nccc(-c2ccc(NCC3(c4ncccc4F)CCC3)nn2)n1 [4-[6-({[(3-fluoro-2-pyridyl)cyclobutyl]methyl}ami-no)pyridazin-3-yl]pyrimidine-2-carboxamide]
B (B=1-10 uM)	CC(C)(Nc1ccc(-c2cc(C(N)=O)ccc2F)nn1)c1ncccc1F [4-fluoro-3-(6-{[1-(3-fluoro(2-pyridyl))-isopropyl]amino}pyridazin-3-yl)benzamide]
A (A=<1 uM)	CC(C)(Nc1ccc(-c2cc(C(N)=O)ccc2F)nn1)c1ccc(F)cc1 [4-fluoro-3-(6-{[1-(4-fluorophenyl)-isopropyl]amino}pyridazin-3-yl)benzamide]
B (B=1-10 uM)	N#Cc1ccc(F)c(-c2ccc(NC[C@]3(c4ncccc4F)C[C@H](F)C3)nn2)c1 [4-fluoro-3-[6-({[3-fluoro-1-(3-fluoro(2-pyridyl))cyclobutyl]methyl}ami-no)pyridazin-3-yl]benzenecarbonitrile]
A (A=<1 uM)	O=C(O)c1ccc(F)c(-c2ccc(NC[C@]3(c4ncccc4F)C[C@H](F)C3)nn2)c1 [4-fluoro-3-[6-({[3-fluoro-1-(3-fluoro(2-pyridyl))cyclobutyl]methyl}ami-no)pyridazin-3-yl]benzoic acid]

Same assay, conditions: median AC1.4 reported as class; procedure of Example 39

Structure (SMILES)	Mean AC1.4
O=C(O)CCc1cnc(-c2ccc(NCC3(c4ncccc4F)CCC3)nn2)s1 [3-{2-[6-({[(3-fluoro-2-pyridyl)cyclobutyl]methyl}ami-no)pyridazin-3-yl]-1,3-thiazol-5-yl}propanoic acid]	B (B=1-10 uM)
NC(=O)c1ccc(O)c(-c2ccc(N3CC4(c5ncccc5F)CC3C4)nn2)c1 [3-{6-[4-(3-fluoro(2-pyridyl))-2-azabicyclo[2.1.1]hex-2-yl]pyridazin-3-yl}-4-hydroxybenzamide]	D (D=>20 uM)

Now from value to molecule:

Mean AC1.4	Structure (SMILES)
D (D=>20 uM)	O=S1(=O)CCN(Cc2cnc(-c3ccc(NCC4(c5ncccc5F)CCC4)nn3)s2)CC1 [4-({2-[6-({[(3-fluoro-2-pyridyl)cyclobutyl]methyl}ami-no)pyridazin-3-yl]-1,3-thiazol-5-yl}methyl)-1,4-thiazaperhydroine-1,1-dione]
B (B=1-10 uM)	O=C1NCc2c1cccc2-c1ccc(NC[C@]2(c3ncccc3F)C[C@H](F)C2)nn1 [4-[6-({[3-fluoro-1-(3-fluoro(2-pyridyl))cyclobutyl]methyl}ami-no)pyridazin-3-yl]isoindolin-1-one]
A (A=<1 uM)	NC(=O)c1ccc(F)c(-c2ccc(NC[C@]3(c4ncccc4F)C[C@H](F)C3)nn2)c1O [4-fluoro-3-[6-({[3-fluoro-1-(3-fluoro(2-pyridyl))cyclobutyl]methyl}ami-no)pyridazin-3-yl]-2-hydroxybenzamide]
C (C=10-20 uM)	Cc1cc(NCC2(c3ncccc3F)CCC2)nnc1-c1cc(C(N)=O)ccc1F [4-fluoro-3-[6-({[(3-fluoro(2-pyridyl))cyclobutyl]methyl}ami-no)-4-methylpyridazin-3-yl]benzamide]
